Results from patent publication US7713994B2 (Wyeth LLC, priority 2005, dated 2010).

Biological target: T1, cyclin D1/cdk 4 enzyme (Homo sapiens, UniProt P11802)
T1 construct: made in house; host or cells: Sf9 insect cells, recombinant baculovirus
Assay: CDK4 ELISA kinase assay (phospho-Rb ser 795 detection)
Format: biochemical
Details: In Vitro Enzyme Assay, cyclin D1/cdk 4, read-out: CDK4 IC50
Description: • 1. High-binding ELISA microtiter plates (Costar) were coated with 40 μl of the kinase substrate (GST fusion of C-terminal fragment of the retinoblastoma susceptibility gene product) diluted to 10 μg/ml in tris-buffered saline (TBS), overnight at 4° C. • 2. Non-specific binding sites were blocked for 1 hour at 4° C. with Superblock in TBS (Pierce), and the plates rinsed with water. • 3. For the screen, 1.5 μl of test compound (200 μg/ml stock in 20% DMSO/20 mM HEPES, pH 7.5) was added to each well. Final dose of the test compound in the assay was 10 ug/ml. […] The kinase reaction (30 μl) was dispensed into each well. Reactions contained 200 μM ATP, 0.5 mg/ml bovine serum albumin (BSA; Sigma), and 0.5 μl partially purified cyclin D1/cdk 4 enzyme*. The enzyme complex is expressed in insect cells (Sf9) infected with recombinant baculovirus and partially purified using ammonium sulfate fractionation. Reaction volumes were adjusted to 30 μl with kinase assay buffer (50 mM HEPES, pH 7.5, 10 mM MgCl2, 5% glycerol, 10 mM 2-mercaptoethanol). • *: For CDK2 assay, 1.0 μl cyclin E/CDK2 enzyme (diluted 1:1000 in kinase assay buffer) was used. The enzyme is isolated from insect cells (Sf9) infected with recombinant baculovirus and partially purified using ammonium sulfate fractionation. For CDK1 assay, 0.08 μl cyclin B/CDK1 enzyme [New England BioLabs; the enzyme is isolated from insect cells (Sf9) infected with recombinant baculovirus carrying human cdc 2 and human cyclin B] was used.
[…] • 5. Plates were incubated at 30° C. for 1 hour. • 6. The reaction mixture was removed by aspiration and replaced with 250 μl TBS containing 0.1% Tween-20 and 5% nonfat dry milk (blocking buffer). The plates were incubated at 4° C. for 1 hour. • 7. The blocking buffer was removed and replaced with 50 μl of the primary antibody [anti-phospho-Rb ser 795 (New England BioLabs) diluted 1:1000 in blocking buffer]. Incubation was at 4° C. for 16-20 hours. • 8. The wells were rinsed 3 times with 250 μl of TBS containing 0.1% Tween-20 followed by the addition of 50 μl of secondary antibody [anti-rabbit IgG conjugated to horseradish peroxidase (Amersham Life Science) diluted 1:1000 in blocking buffer]. • 9. After a 1 hour incubation at room temperature, the wells were rinsed 3 times with 250 μl of TBS/0.1% Tween 20. • 10. TMB (3,3′,5,5′-tetramethylbenzidine dihydrochloride) substrate solution (100 μl; Pierce) was added to each well and the color development reaction allowed to proceed 5-10 minutes at room temperature with shaking. The reaction was stopped by the addition of 2N sulfuric acid (100 μl) and the absorbance values read at 450 nm in a microplate reader (Molecular Devices). Analysis of Results: • 1. The percentage of the absorbance value in wells containing the test compound relative to control wells (no test agent) was determined. • 2. IC50 values of selected compounds were determined from inhibition curves, after subtracting background values (no substrate).

T1 sequence (P11802 whole entry, species assumed): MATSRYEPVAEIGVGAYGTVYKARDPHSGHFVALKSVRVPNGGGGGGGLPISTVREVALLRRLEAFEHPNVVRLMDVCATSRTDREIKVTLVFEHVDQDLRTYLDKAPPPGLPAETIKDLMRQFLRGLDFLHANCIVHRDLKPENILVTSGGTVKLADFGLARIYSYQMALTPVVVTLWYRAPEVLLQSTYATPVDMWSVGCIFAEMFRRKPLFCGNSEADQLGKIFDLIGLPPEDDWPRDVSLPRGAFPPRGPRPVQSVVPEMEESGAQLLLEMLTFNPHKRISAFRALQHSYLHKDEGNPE
T1 sequence (P24385 whole entry partner, species assumed): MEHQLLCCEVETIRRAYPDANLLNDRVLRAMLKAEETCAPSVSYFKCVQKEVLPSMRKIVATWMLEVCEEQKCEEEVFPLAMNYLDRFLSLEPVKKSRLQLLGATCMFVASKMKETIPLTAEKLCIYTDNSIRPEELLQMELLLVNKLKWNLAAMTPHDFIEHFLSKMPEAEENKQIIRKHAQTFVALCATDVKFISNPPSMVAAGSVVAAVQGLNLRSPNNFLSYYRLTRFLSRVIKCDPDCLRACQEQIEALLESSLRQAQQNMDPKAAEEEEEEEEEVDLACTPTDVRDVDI

| SMILES | IC50 [µM] |
| --- | --- |
| CCCS(=O)(=O)Nc1ccc(CNC=C2C(=O)NC(=O)c3ccccc32)cc1 [Example 592, Propane-1-sulfonic acid (4{[(1,3-dioxo-2,3-dihydro-1H-isoquinolin-4-ylidenemethyl)-amino]-methyl}-phenyl)-amide] | 29.9 |
| O=C1NC(=O)c2ccccc2C1=CNc1ccc(N2CCN(CCN3CCOCC3)CC2)cc1 [Example 571, 4-({4-[4-(2-Morpholin-4-yl-ethyl)-piperazin-1-yl]-phenylamino}-methylene)-4H-isoquinoline-1,3-dione] | 33.8 |
| NCc1cccc(CNC=C2C(=O)NC(=O)c3ccccc32)c1 [Example 578, 4-[(3-Aminomethyl-benzylamino)-methylene]-4H-isoquinoline-1,3-dione] | 23.7 |
| CCN(CC)CCN1CCN(c2ccc(NC=C3C(=O)NC(=O)c4ccccc43)cc2)CC1 [Example 599, 4-({4-[4-(2-Diethylamino-ethyl)-piperazin-1-yl]-phenylamino}-methylene)-4H-isoquinoline-1,3-dione] | 39.7 |
| CC(=O)c1cccc(-c2ccc3c(c2)C(=CNCc2ccc(S(N)(=O)=O)cc2)C(=O)NC3=O)c1 [Example 747, 4-({[6-(3-Acetyl-phenyl)-1,3-dioxo-2,3-dihydro-1H-isoquinolin-4-ylidenemethyl]-amino}-methyl)-benzenesulfonamide] | 14.5 |
| CCCS(=O)(=O)Nc1cccc(CNC=C2C(=O)NC(=O)c3ccccc32)c1 [Example 584, Propane-1-sulfonic acid (3-{[(1,3-dioxo-2,3-dihydro-1H-isoquinolin-4-ylidenemethyl)-amino]-methyl}-phenyl)-amide] | 19.4 |
| CN1CCN(c2ccc(NC=C3C(=O)NC(=O)c4ccc(-c5cccc(-c6ccccc6)c5)cc43)cc2)CC1 [Example 697, 6-Biphenyl-3-yl-4-{[4-(4-methyl-piperazin-1-yl)-phenylamino]-methylene}-4H-isoquinoline-1,3-dione] | 48.6 |
| COc1ccccc1-c1ccc2c(c1)C(=CNc1ccc(N3CCN(C)CC3)cc1)C(=O)NC2=O [Example 683, 6-(2-Methoxy-phenyl)-4-{[4-(4-methyl-piperazin-1-yl)-phenylamino]-methylene}-4H-isoquinoline-1,3-dione] | 32.9 |
| COc1ccc(-c2ccc3c(c2)C(=CNCc2ccc(O)c(O)c2)C(=O)NC3=O)c(OC)c1 [Example 814, 4-[(3,4-Dihydroxy-benzylamino)-methylene]-6-(2,4-dimethoxy-phenyl)-4H-isoquinoline-1,3-dione] | 2.75 |
| NS(=O)(=O)c1ccc(CNC=C2C(=O)NC(=O)c3ccc(-c4ccc(C(=O)O)cc4)cc32)cc1 [Example 741, 4-{1,3-Dioxo-4-[(4-sulfamoyl-benzylamino)-methylene]-1,2,3,4-tetrahydro-isoquinolin-6-yl}-benzoic acid] | 2.3 |
| O=C1NC(=O)c2ccccc2C1=CNc1ccc(O)cc1C(=O)O [Example 562, 2-[(1,3-Dioxo-2,3-dihydro-1H-isoquinolin-4-ylidenemethyl)-amino]-5-hydroxy-benzoic acid] | 15.9 |
| CC(=O)Nc1cccc(CNC=C2C(=O)NC(=O)c3ccccc32)c1 [Example 585, N-(3-{[(1,3-Dioxo-2,3-dihydro-1H-isoquinolin-4-ylidenemethyl)-amino]-methyl)-phenyl)-acetamide] | 42.5 |
| NS(=O)(=O)c1ccc(CNC=C2C(=O)NC(=O)c3ccc(-c4cccc(C(=O)O)c4)cc32)cc1 [Example 742, 3-{1,3-Dioxo-4-[(4-sulfamoyl-benzylamino)-methylene]-1,2,3,4-tetrahydro-isoquinolin-6-yl}-benzoic acid] | 13.8 |
| O=C1NC(=O)c2ccccc2C1=CNc1ccccc1-c1nc2ccccc2[nH]1 [Example 551, 4-{[2-(1H-Benzoimidazol-2-yl)-phenylamino]-methylene}-4H-isoquinoline-1,3-dione] | 14.9 |
| CN1CCN(c2ccc(NC=C3C(=O)NC(=O)c4ccc(C=CCc5ccccc5O)cc43)cc2)CC1 [Example 801, 6-[3-(2-Hydroxy-phenyl)-propenyl]-4-{[4-(4-methyl-piperazin-1-yl)-phenylamino]-methylene}-4H-isoquinoline-1,3-dione] | 15.5 |
| Cc1ccccc1-c1ccc2c(c1)C(=CNCc1ccc(O)c(O)c1)C(=O)NC2=O [Example 783, 4-[(3,4-Dihydroxy-benzylamino)-methylene]-6-o-tolyl-4H-isoquinoline-1,3-dione] | 1.23 |
| O=C1NC(=O)c2ccccc2C1=CNc1ccncc1 [Example 618, 4-(Pyridin-4-ylaminomethylene)-4H-isoquinoline-1,3-dione] | 40.1 |
| CN1CCN(c2ccc(NC=C3C(=O)NC(=O)c4ccc(C=Cc5ccc([N+](=O)[O-])cc5)cc43)cc2)CC1 [Example 829, 4-{[4-(4-Methyl-piperazin-1-yl)-phenylamino]-methylene}-6-[2-(4-nitro-phenyl)-vinyl]-4H-isoquinoline-1,3-dione] | 26.5 |
| NS(=O)(=O)c1ccc(CNC=C2C(=O)NC(=O)c3ccc(-c4cccc(-c5ccccc5)c4)cc32)cc1 [Example 758, 4-{[(6-Biphenyl-3-yl-1,3-dioxo-2,3-dihydro-1H-isoquinolin-4-ylidenemethyl)-amino]-methyl}-benzenesulfonamide] | 25.7 |
| CS(=O)(=O)NCc1ccc(NC=C2C(=O)NC(=O)c3ccccc32)cc1 [Example 612, N-{4-[(1,3-Dioxo-2,3-dihydro-1H-isoquinolin-4-ylidenemethyl)-amino]-benzyl}-methanesulfonamide] | 48.9 |
| CC(C)c1ccc(-c2ccc3c(c2)C(=CNc2ccc(CC#N)cc2)C(=O)NC3=O)cc1 [Example 722, (4-{[6-(4-Isopropyl-phenyl)-1,3-dioxo-2,3-dihydro-1H-isoquinolin-4-ylidenemethyl]-amino}-phenyl)-acetonitrile] | 25.3 |
| CN1CCN(c2ccc(NC=C3C(=O)NC(=O)c4ccc(-c5cccc(Cl)c5)cc43)cc2)CC1 [Example 690, 6-(3-Chloro-phenyl)-4-{[4-(4-methyl-piperazin-1-yl)-phenylamino]-methylene}-4H-isoquinoline-1,3-dione] | 20.7 |
| N#CCc1ccc(NC=C2C(=O)NC(=O)c3ccc(-c4cccc(Cl)c4)cc32)cc1 [Example 713, (4-{[6-(3-Chloro-phenyl)-1,3-dioxo-2,3-dihydro-1H-isoquinolin-4-ylidenemethyl]-amino}-phenyl)-acetonitrile] | 12.8 |
| CSc1ccc(-c2ccc3c(c2)C(=CNc2ccc(N4CCN(C)CC4)cc2)C(=O)NC3=O)cc1 [Example 700, 4-{[4-(4-Methyl-piperazin-1-yl)-phenylamino]-methylene}-6-(4-methylsulfanyl-phenyl)-4H-isoquinoline-1,3-dione] | 45 |
| Cc1ccccc1-c1ccc2c(c1)C(=CNc1ccc(N3CCN(C)CC3)cc1)C(=O)NC2=O [Example 694, 4-{[4-(4-Methyl-piperazin-1-yl)-phenylamino]-methylene}-6-o-tolyl-4H-isoquinoline-1,3-dione] | 32.3 |
| CC(C)S(=O)(=O)Nc1cccc(CNC=C2C(=O)NC(=O)c3ccccc32)c1 [Example 580, Propane-2-sulfonic acid (3-{[(1,3-dioxo-2,3-dihydro-1H-isoquinolin-4-ylidenemethyl)-amino]-methyl}-phenyl)-amide] | 48.7 |
| O=C1NC(=O)c2ccccc2C1=CNc1ccc(N2CCN(CC3CCC3)CC2)cc1 [Example 602, 4-{[4-(4-Cyclobutylmethyl-piperazin-1-yl)-phenylamino]-methylene}-4H-isoquinoline-1,3-dione] | 21.5 |
| O=C1NC(=O)c2ccc(-c3ccccc3C(F)(F)F)cc2C1=CNCc1ccc(O)c(O)c1 [Example 774, 4-[(3,4-Dihydroxy-benzylamino)-methylene]-6-(2-trifluoromethyl-phenyl)-4H-isoquinoline-1,3-dione] | 1.4 |
| O=C1NC(=O)c2ccccc2C1=CNc1ccc(N2CCN(CCO)CC2)cc1 [Example 598, 4-({4-[4-(2-Hydroxy-ethyl)-piperazin-1-yl]-phenylamino}-methylene)-4H-isoquinoline-1,3-dione] | 33.1 |
